{
  "source": "paper PMC7855261",
  "about": "(Cell chemical biology, 2020)",
  "origin": "cited, not measured here",
  "test_system": "r(CUG)12-MBNL1 complex",
  "conditions": "ref Parkesh et al., 2012; Rzuczek et al., 2015",
  "data": [
    {"smiles": "Nc1ccc2nc(-c3ccc(-c4nc5ccc(N)cc5[nH]4)cc3)[nH]c2c1", "note": "[Compound 3, 2,2′-p-Phenylene-bis(5-aminobenzimidazole)]", "values": [
      {"measurement": "Bind r(CUG)^exp and inhibit formation of the r(CUG)^exp-MBNL1 complex", "value": "inhibit formation of the r(CUG)^exp-MBNL1 complex"}
    ]}
  ]
}
